Legend:
[1] = molecular target: Tyrosine-protein kinase Lyn (Homo sapiens) (UniProt P07948); experiment: Binding affinity to wild-type human partial length LYN (C219 to Q511 residues) expressed in bacterial expression system assessed as residual binding level at 10 uM by Kinomescan method relative to control
[2] = molecular target: Insulin receptor (Homo sapiens) (UniProt P06213); experiment: Binding affinity to wild-type human partial length INSR (P997 to E1318 residues) expressed in mammalian expression system assessed as residual binding level at 10 uM by Kinomescan method relative to control
[3] = system: Tyrosine-protein kinase ABL1 (Homo sapiens), P00519 [F317L]; experiment: Binding affinity to human phosphorylated ABL1 F317L mutant (S229 to K512 residues) expressed in mammalian expression system assessed as residual binding level at 10 uM by Kinomescan method relative to control
[4] = molecular target: Mitogen-activated protein kinase kinase kinase 10 (Homo sapiens) (UniProt Q02779); experiment: Binding affinity to wild-type human partial length MLK2 (V52 to W380 residues) expressed in bacterial expression system assessed as residual binding level at 10 uM by Kinomescan method relative to control
[5] = molecular target: Serine/threonine-protein kinase B-raf (Homo sapiens) (UniProt P15056); experiment: Binding affinity to wild-type human partial length BRAF (S429 to E741 residues) expressed in mammalian expression system assessed as residual binding level at 10 uM by Kinomescan method relative to control
[6] = molecular target: Serine/threonine-protein kinase NIM1 (Homo sapiens) (UniProt Q8IY84); experiment: Binding affinity to wild-type human partial length NIM1 (Q44 to N355 residues) expressed in mammalian expression system assessed as residual binding level at 10 uM by Kinomescan method relative to control
[7] = molecular target: Mitogen-activated protein kinase kinase kinase 15 (Homo sapiens) (UniProt Q6ZN16); experiment: Binding affinity to wild-type human partial length MAP3K15 (T625 to L932 residues) expressed in mammalian expression system assessed as residual binding level at 10 uM by Kinomescan method relative to control
[8] = molecular target: Ephrin type-A receptor 7 (Homo sapiens) (UniProt Q15375); experiment: Binding affinity to wild-type human partial length EPHA7 (Y608 to S912 residues) expressed in bacterial expression system assessed as residual binding level at 10 uM by Kinomescan method relative to control
[9] = molecular target: cAMP-dependent protein kinase catalytic subunit PRKX (Homo sapiens) (UniProt P51817); experiment: Binding affinity to wild-type human partial length PRKX (M1 to F358 residues) expressed in bacterial expression system assessed as residual binding level at 10 uM by Kinomescan method relative to control
[10] = molecular target: MAP kinase-interacting serine/threonine-protein kinase 1 (Homo sapiens) (UniProt Q9BUB5); experiment: Binding affinity to wild-type human full length MKNK1 (M1 to L424 residues) expressed in mammalian expression system assessed as residual binding level at 10 uM by Kinomescan method relative to control
[11] = molecular target: Cyclin-dependent kinase 11B (Homo sapiens) (UniProt P21127); experiment: Binding affinity to wild-type human partial length CDC2L1 (P353 to G692 residues) expressed in bacterial expression system assessed as residual binding level at 10 uM by Kinomescan method relative to control
[12] = molecular target: MAP kinase-interacting serine/threonine-protein kinase 2 (Homo sapiens) (UniProt Q9HBH9); experiment: Binding affinity to wild-type human partial length MKNK2 (G63 to S388 residues) expressed in mammalian expression system assessed as residual binding level at 10 uM by Kinomescan method relative to control
[13] = molecular target: Serine/threonine-protein kinase 36 (Homo sapiens) (UniProt Q9NRP7); experiment: Binding affinity to wild-type human partial length STK36 (M1 to T271 residues) expressed in bacterial expression system assessed as residual binding level at 10 uM by Kinomescan method relative to control
[14] = system: MDA-MB-231; experiment: Cytotoxicity against human MDA-MB-231 cells assessed as growth inhibition incubated for 48 hrs by Hoechst 33342 staining based assay; assay type: cell-based; details: MDA-MB-231, 48 h
[15] = molecular target: Epithelial discoidin domain-containing receptor 1 (Homo sapiens) (UniProt Q08345); experiment: Binding affinity to wild-type human partial length DDR1 (R565 to V876 residues) expressed in bacterial expression system assessed as residual binding level at 10 uM by Kinomescan method relative to control
[16] = molecular target: Serine/threonine-protein kinase 32B (Homo sapiens) (UniProt Q9NY57); experiment: Binding affinity to wild-type human full length YANK2 (M1 to S414 residues) expressed in bacterial expression system assessed as residual binding level at 10 uM by Kinomescan method relative to control
[17] = molecular target: Mitogen-activated protein kinase kinase kinase 20 (Homo sapiens) (UniProt Q9NYL2); experiment: Binding affinity to wild-type human partial length ZAK (M1 to L331 residues) expressed in bacterial expression system assessed as residual binding level at 10 uM by Kinomescan method relative to control
[18] = molecular target: Mitogen-activated protein kinase 8 (Homo sapiens) (UniProt P45983); experiment: Binding affinity to wild-type human full length JNK1 (M1 to Q384 residues) expressed in mammalian expression system assessed as residual binding level at 10 uM by Kinomescan method relative to control
[19] = molecular target: Casein kinase I isoform gamma-3 (Homo sapiens) (UniProt Q9Y6M4); experiment: Binding affinity to wild-type human full length CSNK1G3 (M1 to K447 residues) expressed in bacterial expression system assessed as residual binding level at 10 uM by Kinomescan method relative to control
[20] = molecular target: Serine/threonine-protein kinase TAO1 (Homo sapiens) (UniProt Q7L7X3); experiment: Binding affinity to wild-type human partial length TAOK1 (M1 to A320 residues) expressed in mammalian expression system assessed as residual binding level at 10 uM by Kinomescan method relative to control
[21] = molecular target: Serine/threonine-protein kinase MARK2 (Homo sapiens) (UniProt Q7KZI7); experiment: Binding affinity to wild-type human partial length MARK2 (M1 to R450 residues) expressed in bacterial expression system assessed as residual binding level at 10 uM by Kinomescan method relative to control
[22] = molecular target: Homeodomain-interacting protein kinase 4 (Homo sapiens) (UniProt Q8NE63); experiment: Binding affinity to wild-type human partial length HIPK4 (M1 to V384 residues) expressed in bacterial expression system assessed as residual binding level at 10 uM by Kinomescan method relative to control
[23] = molecular target: Serine/threonine-protein kinase Nek4 (Homo sapiens) (UniProt P51957); experiment: Binding affinity to wild-type human full length NEK4 (M1 to F841 residues) expressed in mammalian expression system assessed as residual binding level at 10 uM by Kinomescan method relative to control
[24] = molecular target: Serine/threonine-protein kinase TBK1 (Homo sapiens) (UniProt Q9UHD2); experiment: Binding affinity to wild-type human full length TBK1 (M1 to L729 residues) expressed in mammalian expression system assessed as residual binding level at 10 uM by Kinomescan method relative to control
[25] = molecular target: Serine/threonine-protein kinase ULK3 (Homo sapiens) (UniProt Q6PHR2); experiment: Binding affinity to wild-type human partial length ULK3 (M1 to Q290 residues) expressed in mammalian expression system assessed as residual binding level at 10 uM by Kinomescan method relative to control

Sequence of Mitogen-activated protein kinase kinase kinase 15 (Homo sapiens) (Q6ZN16 whole entry, the tested form may be a part): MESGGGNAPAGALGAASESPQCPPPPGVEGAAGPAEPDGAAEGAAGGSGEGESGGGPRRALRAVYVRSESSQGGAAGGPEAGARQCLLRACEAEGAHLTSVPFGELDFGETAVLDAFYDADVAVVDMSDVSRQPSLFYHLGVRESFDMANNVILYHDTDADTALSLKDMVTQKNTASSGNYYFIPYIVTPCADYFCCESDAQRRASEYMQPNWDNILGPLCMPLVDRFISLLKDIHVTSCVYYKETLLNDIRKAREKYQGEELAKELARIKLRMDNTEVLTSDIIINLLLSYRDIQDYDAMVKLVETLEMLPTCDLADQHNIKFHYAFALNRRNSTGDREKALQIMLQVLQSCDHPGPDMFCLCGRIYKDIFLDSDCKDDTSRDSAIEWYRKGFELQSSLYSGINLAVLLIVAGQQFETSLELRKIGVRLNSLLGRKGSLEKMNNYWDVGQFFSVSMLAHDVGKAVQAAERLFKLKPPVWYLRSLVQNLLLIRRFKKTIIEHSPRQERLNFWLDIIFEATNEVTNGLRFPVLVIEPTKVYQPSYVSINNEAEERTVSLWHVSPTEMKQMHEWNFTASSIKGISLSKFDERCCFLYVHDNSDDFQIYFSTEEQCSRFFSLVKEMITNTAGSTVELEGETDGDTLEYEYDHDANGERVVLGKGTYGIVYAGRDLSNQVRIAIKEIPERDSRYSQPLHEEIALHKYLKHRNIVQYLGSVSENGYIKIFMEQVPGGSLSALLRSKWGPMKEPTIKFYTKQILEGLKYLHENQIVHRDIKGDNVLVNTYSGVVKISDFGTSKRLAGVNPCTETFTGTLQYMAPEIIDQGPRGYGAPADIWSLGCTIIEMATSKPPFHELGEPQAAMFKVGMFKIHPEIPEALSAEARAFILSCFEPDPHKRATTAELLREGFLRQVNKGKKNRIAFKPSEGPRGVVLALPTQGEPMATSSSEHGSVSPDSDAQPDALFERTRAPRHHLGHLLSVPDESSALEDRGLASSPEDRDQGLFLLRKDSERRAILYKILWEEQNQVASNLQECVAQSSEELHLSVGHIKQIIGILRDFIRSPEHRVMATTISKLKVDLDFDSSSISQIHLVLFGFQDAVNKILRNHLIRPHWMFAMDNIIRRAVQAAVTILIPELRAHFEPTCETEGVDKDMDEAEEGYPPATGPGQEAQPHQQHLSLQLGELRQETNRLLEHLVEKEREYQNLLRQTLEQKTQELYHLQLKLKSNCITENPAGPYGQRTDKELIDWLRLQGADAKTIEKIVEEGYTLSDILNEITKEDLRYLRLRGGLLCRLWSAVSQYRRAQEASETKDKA
Sequence of Mitogen-activated protein kinase 8 (Homo sapiens) (P45983 whole entry, the tested form may be a part, canonical isoform): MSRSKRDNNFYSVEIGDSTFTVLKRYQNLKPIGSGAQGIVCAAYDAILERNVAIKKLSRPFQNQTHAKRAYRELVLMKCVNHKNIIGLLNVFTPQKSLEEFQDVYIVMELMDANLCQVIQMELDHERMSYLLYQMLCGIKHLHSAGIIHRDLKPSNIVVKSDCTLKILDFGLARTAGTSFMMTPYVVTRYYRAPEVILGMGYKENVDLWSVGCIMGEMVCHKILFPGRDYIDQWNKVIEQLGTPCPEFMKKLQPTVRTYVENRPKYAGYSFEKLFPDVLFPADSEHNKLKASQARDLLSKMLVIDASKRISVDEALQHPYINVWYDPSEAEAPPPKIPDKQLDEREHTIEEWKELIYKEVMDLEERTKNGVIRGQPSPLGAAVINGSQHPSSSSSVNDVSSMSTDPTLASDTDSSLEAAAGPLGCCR
Sequence of cAMP-dependent protein kinase catalytic subunit PRKX (Homo sapiens) (P51817 whole entry, the tested form may be a part): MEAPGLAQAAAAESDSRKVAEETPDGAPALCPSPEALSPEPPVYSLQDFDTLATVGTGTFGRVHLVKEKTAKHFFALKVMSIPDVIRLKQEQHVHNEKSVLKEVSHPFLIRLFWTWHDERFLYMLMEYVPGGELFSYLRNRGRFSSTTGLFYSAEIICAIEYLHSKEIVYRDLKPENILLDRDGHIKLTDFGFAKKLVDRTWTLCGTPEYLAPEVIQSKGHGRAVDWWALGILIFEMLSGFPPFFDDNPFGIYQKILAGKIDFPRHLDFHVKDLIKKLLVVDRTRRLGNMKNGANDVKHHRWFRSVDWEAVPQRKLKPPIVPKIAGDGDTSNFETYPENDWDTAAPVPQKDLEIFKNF
Sequence of Casein kinase I isoform gamma-3 (Homo sapiens) (Q9Y6M4 whole entry, looked up, the tested form may be a part, canonical isoform): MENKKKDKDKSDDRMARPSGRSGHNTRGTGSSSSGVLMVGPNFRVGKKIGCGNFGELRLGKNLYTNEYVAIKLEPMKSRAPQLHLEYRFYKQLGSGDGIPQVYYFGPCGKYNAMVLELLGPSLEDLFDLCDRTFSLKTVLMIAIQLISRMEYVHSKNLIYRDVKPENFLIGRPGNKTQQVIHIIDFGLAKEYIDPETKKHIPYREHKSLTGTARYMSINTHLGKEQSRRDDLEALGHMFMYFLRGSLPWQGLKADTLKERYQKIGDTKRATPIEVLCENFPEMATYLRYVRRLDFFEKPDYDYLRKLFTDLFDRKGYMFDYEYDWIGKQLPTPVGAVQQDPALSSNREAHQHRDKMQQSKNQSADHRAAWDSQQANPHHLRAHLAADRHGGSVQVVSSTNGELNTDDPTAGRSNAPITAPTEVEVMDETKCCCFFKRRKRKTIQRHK
Sequence of Tyrosine-protein kinase ABL1 (Homo sapiens), P00519 [F317L] (P00519 whole entry F317L, the tested form may be a part): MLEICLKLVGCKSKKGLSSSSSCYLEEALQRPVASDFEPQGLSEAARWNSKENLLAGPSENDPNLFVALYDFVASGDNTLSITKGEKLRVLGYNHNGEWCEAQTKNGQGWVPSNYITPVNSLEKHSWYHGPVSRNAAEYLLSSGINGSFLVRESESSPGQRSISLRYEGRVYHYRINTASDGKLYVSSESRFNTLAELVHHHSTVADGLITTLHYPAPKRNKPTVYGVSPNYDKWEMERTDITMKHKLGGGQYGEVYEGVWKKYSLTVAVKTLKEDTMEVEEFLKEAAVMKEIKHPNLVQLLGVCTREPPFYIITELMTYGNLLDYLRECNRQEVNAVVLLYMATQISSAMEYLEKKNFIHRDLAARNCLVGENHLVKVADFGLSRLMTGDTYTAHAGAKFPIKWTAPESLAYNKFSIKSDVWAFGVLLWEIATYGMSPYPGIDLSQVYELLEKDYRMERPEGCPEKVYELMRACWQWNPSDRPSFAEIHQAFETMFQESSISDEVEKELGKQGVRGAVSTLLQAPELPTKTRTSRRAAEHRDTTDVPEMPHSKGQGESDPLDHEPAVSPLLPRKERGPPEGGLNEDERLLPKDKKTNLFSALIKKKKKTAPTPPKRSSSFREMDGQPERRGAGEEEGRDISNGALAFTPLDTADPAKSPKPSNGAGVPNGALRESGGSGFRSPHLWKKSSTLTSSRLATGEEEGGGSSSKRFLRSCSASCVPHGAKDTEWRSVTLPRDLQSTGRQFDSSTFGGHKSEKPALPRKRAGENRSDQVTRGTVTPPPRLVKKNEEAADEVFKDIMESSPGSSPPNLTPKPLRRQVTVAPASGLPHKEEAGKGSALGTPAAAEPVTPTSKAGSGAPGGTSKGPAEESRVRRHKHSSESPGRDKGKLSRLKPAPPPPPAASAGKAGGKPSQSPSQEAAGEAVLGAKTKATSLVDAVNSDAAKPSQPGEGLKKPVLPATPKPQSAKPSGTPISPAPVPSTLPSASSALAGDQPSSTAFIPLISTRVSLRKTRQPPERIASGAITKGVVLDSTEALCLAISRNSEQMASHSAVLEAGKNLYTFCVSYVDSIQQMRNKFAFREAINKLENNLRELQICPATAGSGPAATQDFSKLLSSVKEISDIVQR
Sequence of Mitogen-activated protein kinase kinase kinase 10 (Homo sapiens) (Q02779 whole entry, looked up, the tested form may be a part): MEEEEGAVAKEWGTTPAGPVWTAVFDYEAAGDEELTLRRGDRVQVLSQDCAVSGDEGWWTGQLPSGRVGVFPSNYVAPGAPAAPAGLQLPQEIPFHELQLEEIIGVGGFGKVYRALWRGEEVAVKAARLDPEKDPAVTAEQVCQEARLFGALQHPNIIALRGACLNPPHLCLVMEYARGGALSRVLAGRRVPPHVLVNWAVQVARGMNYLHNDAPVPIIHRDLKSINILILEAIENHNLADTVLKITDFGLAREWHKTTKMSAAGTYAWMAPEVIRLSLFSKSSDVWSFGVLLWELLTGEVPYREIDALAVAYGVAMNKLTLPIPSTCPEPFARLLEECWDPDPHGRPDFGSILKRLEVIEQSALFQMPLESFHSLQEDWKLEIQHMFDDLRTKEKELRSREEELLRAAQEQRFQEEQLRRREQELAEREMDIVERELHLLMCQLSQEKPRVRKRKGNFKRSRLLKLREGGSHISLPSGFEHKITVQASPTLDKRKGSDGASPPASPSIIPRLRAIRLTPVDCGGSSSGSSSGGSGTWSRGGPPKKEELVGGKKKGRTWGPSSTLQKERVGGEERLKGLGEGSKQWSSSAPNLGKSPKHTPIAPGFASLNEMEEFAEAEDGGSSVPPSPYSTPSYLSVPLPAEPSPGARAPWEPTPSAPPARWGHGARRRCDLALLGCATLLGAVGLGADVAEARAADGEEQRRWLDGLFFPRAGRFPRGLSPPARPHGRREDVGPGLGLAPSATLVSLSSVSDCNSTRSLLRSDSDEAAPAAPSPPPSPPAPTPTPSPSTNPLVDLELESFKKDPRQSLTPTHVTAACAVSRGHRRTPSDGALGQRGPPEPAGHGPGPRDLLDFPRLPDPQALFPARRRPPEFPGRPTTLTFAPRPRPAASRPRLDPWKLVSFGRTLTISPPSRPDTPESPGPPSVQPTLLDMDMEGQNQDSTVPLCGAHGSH
Sequence of Serine/threonine-protein kinase NIM1 (Homo sapiens) (Q8IY84 whole entry, the tested form may be a part): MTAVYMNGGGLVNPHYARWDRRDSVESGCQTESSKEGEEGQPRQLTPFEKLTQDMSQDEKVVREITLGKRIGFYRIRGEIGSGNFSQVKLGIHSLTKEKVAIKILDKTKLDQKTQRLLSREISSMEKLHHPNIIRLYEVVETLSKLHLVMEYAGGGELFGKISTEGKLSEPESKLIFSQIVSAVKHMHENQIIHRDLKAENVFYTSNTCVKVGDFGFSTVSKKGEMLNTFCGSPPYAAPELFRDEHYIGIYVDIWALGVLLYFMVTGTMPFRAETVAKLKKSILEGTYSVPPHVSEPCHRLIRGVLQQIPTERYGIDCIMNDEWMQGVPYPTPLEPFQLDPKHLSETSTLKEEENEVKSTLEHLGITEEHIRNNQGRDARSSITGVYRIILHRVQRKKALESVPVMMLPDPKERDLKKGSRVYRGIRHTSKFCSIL

Compound `O=C(Nc1cc(-c2cn(CCNc3c4c(nc5ccccc35)CCCC4)nn2)ccn1)Nc1cccc2c1C1CCCCN1C2=O` (racemic) has an Activity [1] of 83%, an Activity [2] of 17% and an Activity [3] of 20%. It also gave an Activity [4] of 58%, an Activity [5] of 51% and an Activity [6] of 83%. The Activity [7] was 100%, the Activity [8] was 76% and the Activity [9] was 15%. For the same compound, the Activity [10] was 100%, the Activity [11] was 99% and the Activity [12] was 72%. It also gave an Activity [13] of 9.1%, an IC50 [14] of 2 µM and an Activity [15] of 0.3%. The Activity [16] was 100%, the Activity [17] was 31% and the Activity [18] was 0.55%. For the same compound, the Activity [19] was 80%, the Activity [20] was 2.6% and the Activity [21] was 46%. For the same compound, the Activity [22] was 84%, the Activity [23] was 98% and the Activity [24] was 10%. The Activity [25] was 43%.
